Test results: PubChem BioAssay (NCI)
“And” between values parts separate entries of the source, which are not always exact repeats. Equal entries are not always repeated.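 Exposure lasted 48 hours, with cells grown in 96-well plates and compounds tested at five concentrations. Here, GI50 denotes the concentration required for 50% inhibition of growth. At the TGI there is no net growth.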

Tests used:
Assay in all cases: NCI anticancer screen, dose series, 48 h
SF-295 CNS = tested on: SF-295 CNS
NCI-H226 lung = tested on: NCI-H226 lung
RPMI-8226 leukemia = tested on: RPMI-8226 leukemia
MOLT-4 leukemia = tested on: MOLT-4 leukemia
SK-MEL-28 melanoma = tested on: SK-MEL-28 melanoma
KM12 colon = tested on: KM12 colon
HOP-62 NSCLC = tested on: HOP-62 NSCLC
SNB-75 CNS = tested on: SNB-75 CNS
NCI/ADR-RES ovarian = tested on: NCI/ADR-RES ovarian
MCF7 breast = tested on: MCF7 breast

SMILES | TGI (SF-295 CNS) | TGI (NCI-H226 lung) | TGI (RPMI-8226 leukemia) | TGI (MOLT-4 leukemia) | TGI (SK-MEL-28 melanoma) | TGI (KM12 colon) | TGI (HOP-62 NSCLC) | TGI (SNB-75 CNS) | TGI (NCI/ADR-RES ovarian) | TGI (MCF7 breast) | GI50 (SNB-75 CNS) | GI50 (RPMI-8226 leukemia) | GI50 (MOLT-4 leukemia) | GI50 (MCF7 breast) | GI50 (KM12 colon) | GI50 (HOP-62 NSCLC) | GI50 (SF-295 CNS) | GI50 (NCI-H226 lung) | GI50 (SK-MEL-28 melanoma)
CCCCc1c2c(nc3c1CCc1cc4c(nc1-3)-c1nc3c(c(CCCC)c1CC4)CCC/C3=C\c1ccccc1)/C(=C/c1ccccc1)CCC2 | > 100 µM | > 100 µM | > 100 µM | > 100 µM | > 100 µM | > 100 µM | > 100 µM |  |  |  |  |  |  |  |  |  |  |  | 
COc1cccc(NC(=O)CSc2nnc(-c3ccc(N=Cc4ccc(Cl)cc4)cc3)o2)c1 | 43.5 µM | 43.4 µM | 65.1 µM | 93.3 µM | 37.5 µM | 31.3 µM | > 100 µM | 66.3 µM |  |  |  |  |  |  |  |  |  |  | 
O=C(c1ccc2ccccc2c1)C1S(=O)(=O)OCCOS1(=O)=O | > 100 µM |  | > 100 µM | > 100 µM | > 100 µM | > 100 µM | > 100 µM |  | > 100 µM | > 100 µM |  |  |  |  |  |  |  |  | 
OC(c1ccc(Cl)cc1)(c1ccc(Cl)cc1)C(O)(c1ccc(Cl)cc1)c1ccc(Cl)cc1 |  |  | > 100 µM | > 100 µM |  | > 100 µM |  | > 100 µM |  | > 100 µM | 4.36 µM | 3.27 µM | 3.18 µM | 3.27 µM | 4.12 µM |  |  |  | 
CCCn1c(C23CC4CC(CC(C4)C2)C3)nc2ccc(Cl)cc2c1=O | > 100 µM | > 100 µM | > 100 µM | > 100 µM | > 100 µM | > 100 µM | 70.1 µM |  | > 100 µM | > 100 µM |  |  |  |  |  |  |  |  | 
Clc1nc(-[n+]2ccc(-c3ccncc3)cc2)nc(Nc2ccccc2)c1Cl |  | > 100 µM | > 100 µM | > 100 µM | > 100 µM | > 100 µM | > 100 µM |  | > 100 µM | > 100 µM |  |  |  |  |  |  |  |  | 
CC(C)(C)N=C1CC(C)(C)c2ccccc2C(=Nc2ccccc2)S1 | > 100 µM | > 100 µM | 41.5 µM | 69.2 µM | > 100 µM | > 100 µM | > 100 µM | > 100 µM |  |  |  |  |  |  |  |  |  |  | 
COc1cc(C2C3=C(CCC3=O)Oc3cc4c(cc32)OCO4)cc(OC)c1OC (stereo not given) | 0.532 µM |  |  |  | > 100 µM |  | 0.742 µM | 0.481 µM |  |  |  |  |  |  |  |  |  |  | 
CN1CCn2c(Br)ccc2C1=O | > 100 µM | > 100 µM | > 100 µM | > 100 µM | > 100 µM | > 100 µM | > 100 µM |  |  |  |  |  |  |  |  |  |  |  | 
COc1ccc(/C=C2\Cc3ccccc3C2=O)cc1OC | > 100 µM |  | > 100 µM | > 100 µM | > 100 µM | > 100 µM | > 100 µM |  |  |  |  |  |  |  |  |  |  |  | 
COc1cc2cc(C(=O)N3CC(CCl)c4c3cc(N)c3ccccc43)[nH]c2cc1OCCN(C)C (stereo not given) |  | 0.0224 µM | 0.408 µM | 17.4 µM |  | 0.0116 µM | 0.00741 µM |  | 0.175 µM | 6.52 µM |  |  |  |  |  |  |  |  | 
O=S1(=O)NNC(=NCc2ccc(Cl)cc2)c2ccccc21 | > 100 µM | > 100 µM | > 100 µM | > 100 µM |  | > 100 µM |  |  |  |  |  |  |  |  |  |  |  |  | 
O=C(Nn1c(-c2ccccc2)nc2ccccc2c1=O)c1ccccn1 | > 100 µM |  | > 100 µM | > 100 µM | > 100 µM | > 100 µM | > 100 µM | > 100 µM | > 100 µM |  |  |  |  |  |  |  |  |  | 
COC(=O)c1ccc(-c2nc(C#N)c(N)o2)cc1 | > 100 µM | > 100 µM | > 100 µM | > 100 µM | > 100 µM | > 100 µM | > 100 µM |  |  | > 100 µM |  |  |  |  |  |  |  |  | 
CC(=O)/C=C/C=C(\C)CC/C=C(\C)CC(C)C | > 100 µM | 68.6 µM | 38.4 µM | 41.9 µM | > 100 µM | 95.3 µM | > 100 µM | 98.8 µM |  | 57.9 µM |  |  |  |  |  |  |  |  | 
CCOc1ccc2[nH]c3c(C)c4cc[n+](C)cc4c(C)c3c2c1 | 0.672 µM and 1.55 µM | 0.965 µM and 2.88 µM | > 86.8 µM | 21.6 µM and > 56 µM | 7.9 µM and 13 µM | 14.4 µM and 21.6 µM | 4.76 µM and 6.01 µM | 0.452 µM and 0.291 µM |  |  | 0.18 µM and 0.0795 µM |  | 1.11 µM and 2.69 µM |  |  | 0.415 µM and 1.12 µM |  |  | 
CC1(O)C=CC2CCC1C2O (stereo not given) | > 100 µM | > 100 µM | 53.5 µM | > 100 µM | > 100 µM | > 100 µM | > 100 µM | > 100 µM |  |  |  |  |  |  |  |  |  |  | 
CN=C(Nn1cnnc1)OC | > 100 µM |  | > 100 µM | > 100 µM | > 100 µM | > 100 µM | > 100 µM |  | > 100 µM | > 100 µM |  |  |  |  |  |  |  |  | 
O=C1NC(=S)N/C1=C/c1ccccc1O | > 100 µM | > 100 µM | > 100 µM | > 100 µM | > 100 µM |  | > 100 µM |  | > 100 µM | > 100 µM |  |  |  |  |  |  |  |  | 
O=c1[nH]c(=O)n(C2OC(COP(=O)(O)OP(=O)(O)O)C(O)C2O)cc1F (stereo not given) | > 50 µM | 28.6 µM | > 50 µM | > 50 µM | > 50 µM | > 50 µM | 29.6 µM | > 50 µM |  |  |  |  |  |  |  |  |  |  | 
O=C1c2[nH]cc(CN3CCNCC3)c2C(=O)c2c1c(O)c1ccccc1c2O | 3.37 µM | 40.7 µM |  | > 20 µM | 3.6 µM | 53 µM | 1.14 µM | 37.8 µM |  | > 100 µM | 15.4 µM |  | 3.08 µM | 32.9 µM | 20.9 µM |  | 1.74 µM | 12.2 µM | 1.62 µM
